pEC50, pKd: −log10 of the molar value. Entries after “also recorded” stand apart in the source; their conditions may differ. Read-outs that look alike come from different tables or passages of the source.
Experiments:
[1] = target: T1, human M1 muscarinic receptors (Homo sapiens, UniProt P11229); assay: [3H]-arachidonic acid release in CHO cells expressing M1 receptors, with and without ACh; type: cell-based; set-up: expressed in transfected cells; host or cells: CHO cells (stably transfected CHO-hM1, from Mark Brann's laboratory, NIH); conditions: for No ACh: agonist effect of the allosteric ligand by itself, fraction of the maximal response that could be elicited by ACh / 0.1 µM ACh: response with modulator present divided by response to ACh alone / 100 µM ACh: response with modulator present divided by response to ACh alone: modulator 10 µM, mean ± s.e.m.; for No ACh: agonist effect of the allosteric ligand by itself, fraction of the maximal response that could be elicited by ACh: at least 4 determinations; for intrinsic agonist activity (in words): [3H]AA release in the absence of ACh, 10 µM
T1 sequence (P11229 1-460): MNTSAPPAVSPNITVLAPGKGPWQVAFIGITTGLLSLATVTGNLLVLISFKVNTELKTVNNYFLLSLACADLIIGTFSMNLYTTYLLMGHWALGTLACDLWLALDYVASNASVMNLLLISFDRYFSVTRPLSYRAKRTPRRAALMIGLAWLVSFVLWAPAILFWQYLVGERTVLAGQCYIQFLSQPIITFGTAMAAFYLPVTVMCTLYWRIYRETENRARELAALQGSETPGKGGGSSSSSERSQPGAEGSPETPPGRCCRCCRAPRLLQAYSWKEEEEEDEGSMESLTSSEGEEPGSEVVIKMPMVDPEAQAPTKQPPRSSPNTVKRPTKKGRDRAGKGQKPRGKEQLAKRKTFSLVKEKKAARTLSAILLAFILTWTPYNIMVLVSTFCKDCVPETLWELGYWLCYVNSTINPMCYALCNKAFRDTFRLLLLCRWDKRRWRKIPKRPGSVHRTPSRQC
Experimental: CHO cells expressing human M1 muscarinic receptors were cultured at 37°C in a 5% CO2 atmosphere in F12 medium supplemented with 5% fetal bovine serum, 100 units/mL penicillin, and 100µg/mL streptomycin. These cells were obtained from Mark Brann’s laboratory when they were at NIH and have been in use by us and others for many years.[49]
Measurement of [^3H]AA release was performed as described in Stahl and Ellis.[24] Stably transfected CHO-hM1 cells were seeded on 24-well plates (Greiner Bio-One GmbH, Frickenhausen, Germany) at a density of 5.0 × 10^4 cells/well in 0.5 ml of F-12 medium. Cells were incubated until they attached (approximately 3 h), followed by the addition of [^3H]AA to a final concentration of 0.05 µCi of [^3H]AA per well. The cells were then grown for 16 to 20 h before the assay was performed. [^3H]AA release was measured in Eagle’s basal medium with 20 mM HEPES and 2 mg/ml fatty acid-free bovine serum albumin (EM-BSA). Cells were rinsed twice with EM-BSA, followed by the addition of EM-BSA media containing experimental agents and incubated for 1 h at 37°C. The assay was terminated by aspiration of the media, and the amount of [^3H]AA released was determined by liquid scintillation counting (Beckman-Coulter LS6500). […]
Tabulated [^3H]AA release data are represented as a fraction of maximal release elicited by ACh or as the fraction of release elicited by the relevant concentration of ACh alone, as indicated. Dose-response curves were normalized to the maximal response of ACh without allosteric ligand. Where indicated, response curves were analyzed using the empirical four-parameter equation: […] where X is the concentration of the ligand used, Y is the amount of response, C50 is the concentration of the ligand that produces 50% of the maximal effect, Top and Bottom are the top and bottom plateaus of the curve, and n is related to the Hill slope for the curve. Where indicated, families of response curves were analyzed according to an allosteric operational model:[50],[51]

[2] = tested on: wild-type (AB) zebrafish (Danio rerio); assay: Maximum tolerated concentration (MTC) determination in zebrafish larvae; type: in vivo; conditions: for MTC (maximum tolerated concentration): 5 dpf zebrafish larvae, after 24-hr exposure
Experimental: Determination of maximum tolerated concentration (adapted from Berghmans)[52] was completed by placing 5 days post fertilization (dpf) wild-type zebrafish larvae in a 24 well plate at 6 fish per well, and one compound concentration per well. […] Death was determined by the absence of heartbeat. Additional endpoints were used to assess toxicity at non-lethal concentrations such as startle capacity (poke stimulus), abnormalities in swimming behavior (loss of dorsoventral balance), and gross morphological deformities (bent body). […] The MTC determination was used to select three doses of each compound (low, medium, high dose) to be used in behavioral assays.

[3] = tested on: wild-type (AB) zebrafish (Danio rerio); assay: animal or person; type: in vivo; conditions: for effect on locomotor activity and turning behaviors (in words): 30-minute spontaneous swimming period; for Therap. Index: zebrafish, apparently MTC / MEC; for pEC50: Danio rerio, AB zebrafish larvae
Experimental: The movement of larval zebrafish was monitored with the Noldus behavior recording system (Noldus Information Technology, Leesburg VA) and quantified using EthoVision® XT 15 software (Noldus Information Technology, Leesburg VA). Five-dpf zebrafish larvae were exposed to a range of nonlethal concentrations of compounds in a 24-well plate with appropriate controls. The plate was immediately placed in the incubator for a 30-minute exposure period. After 30 minutes, the plate was transferred to the Noldus system and swimming behavior was recorded in 100% light for 30 minutes to measure spontaneous swimming behavior. The light was switched off for 10 minutes (dark period) and then switched on for 10 minutes (light period), which was then repeated for two additional cycles. In total, the larvae were exposed to three cycles of alternating 10-minute dark and light periods (100% darkness-to-100% light). Each drug challenge was conducted on three separate plates with n = 6 larvae/dose/plate.
Absolute turn angle (TA) and angular velocity provided measures of the extent of turning behavior, while the intra-individual variance of turn angle quantified how consistently (low variance) or inconsistently (high variance) fish turned. A lowered intra-individual variance of turning reflected repeatedly performing the same turning behavior, a stereotypy.[53]
All data for exposure and the behavioral end points were analyzed by one-way ANOVA (factor: drug concentration) followed by a Dunnett’s multiple comparisons test for post hoc significance between drug concentration and control group. Statistically significant differences are noted as follows; *, p < 0.05; **, p < 0.01; ***, p < 0.001.

[4] = target: T1, human M1 muscarinic receptors; assay: Full ACh dose-response curves of [3H]AA release fitted to an allosteric operational model
Experimental: Tabulated [^3H]AA release data are represented as a fraction of maximal release elicited by ACh or as the fraction of release elicited by the relevant concentration of ACh alone, as indicated. Dose-response curves were normalized to the maximal response of ACh without allosteric ligand. Where indicated, response curves were analyzed using the empirical four-parameter equation: Y=Top+Bottom−Top/1+X/C50^n where X is the concentration of the ligand used, Y is the amount of response, C50 is the concentration of the ligand that produces 50% of the maximal effect, Top and Bottom are the top and bottom plateaus of the curve, and n is related to the Hill slope for the curve. Where indicated, families of response curves were analyzed according to an allosteric operational model:[50],[51]
where EM is the maximal response; A is the concentration of ACh; B is the concentration of the allosteric ligand; τA and τB represent the operational efficacies of A and B, respectively; KA and KB are the equilibrium dissociation constants of A and B; and α and β represent the cooperativities between A and B in terms of binding and activation, respectively. Curve-fitting was carried out with GraphPad Prism, version 5.0 or 6.0 (San Diego CA).

[5] = [3H]AA release, CHO-hM1, modulators at 10 µM (amiodarone 30 µM)
[6] = best-fit parameter, allosteric operational model, Em set to 2.0, ACh as agonist

In the case of `CCCCc1oc2ccccc2c1C(=O)c1cc(I)c(OC)c(I)c1` [Compound 6b, (2-butylbenzofuran-3-yl)(3,5-diiodo-4-methoxyphenyl)methanone], the “modulation of ACh response (in words)” value [1, 5] was “increased ACh activity” and the “MTC (maximum tolerated concentration)” value [2] was 30 µM.

For `CCCCc1oc2ccccc2c1C(=O)c1cc(I)c(OCC[N+](CC)(CC)CC)c(I)c1` [Compound 2, N-ethyl amiodarone, reference compound], the “modulation of ACh response (in words)” value [1, 5] was “NAM of mAChR potency and efficacy” and the “MTC (maximum tolerated concentration)” value [2] was 1 µM.

In the case of `COc1ccc(Cn2cc(C(=O)O)c(=O)c3ccccc32)cc1` [BQCA, reference compound], the “modulation of ACh response (in words)” value [1] was “enhanced potency without appreciable effect on maximal response”, the “No ACh: agonist effect of the allosteric ligand by itself, fraction of the maximal response that could be elicited by ACh” value ([1]; CHO-hM1) was 0.02 ± 0.00 and the “effect on locomotor activity and turning behaviors (in words)” value ([3]; AB zebrafish) was “decreased overall locomotor activity”.

For `CCCCc1oc2ccccc2c1C(=O)c1cc(I)c(O)c(I)c1` [Compound 3, reference compound], the “modulation of ACh response (in words)” value [1, 5] was “suppressed the maximal ACh response” and the “MTC (maximum tolerated concentration)” value [2] was 3 µM.

`CCN(CC)CCOc1ccc(CN2C(=O)C(=O)c3ccccc32)cc1` [Compound 7, 1-(4-(2-(diethylamino)ethoxy)benzyl)indoline-2,3-dione] was tested, and the “intrinsic agonist activity (in words)” value [1] was “lacked intrinsic activity”, the “modulation of ACh response (in words)” value [1, 5] was “primarily decreased potency and slightly enhanced the efficacy of ACh activity; also recorded: decreased ACh potency with little impact on ACh efficacy” and the pKd [4] was 6.20. For the same compound, the “Activation cooperativity, A-B, β” value [4, 6] was 0.99 ± 0.12, the “Binding cooperativity, A-B, α” value [4, 6] was 0.18 ± 0.095 and the “Operational Efficacy-B, τB” value [4, 6] was 0.032 ± 0.02. The “effect on locomotor activity and turning behaviors (in words)” value ([3]; AB zebrafish) was “not effective in reducing locomotor activity or elevating angular velocity or variance of turn angle” and the “MTC (maximum tolerated concentration)” value [2] was 10 µM.

In the case of `CCN(CC)CCOc1c(Br)cc(CN2C(=O)C(=O)c3ccccc32)cc1Br.Cl` [Compound 8l, 1-(3,5-dibromo-4-(2-(diethylamino)ethoxy)benzyl)indoline-2,3-dione hydrochloride], the “modulation of ACh response (in words)” value [1, 5] was “only decreased ACh activity; also recorded: decreased ACh potency with little impact on ACh efficacy”, the “Therap. Index” value [3] was 1 and the “MTC (maximum tolerated concentration)” value [2] was 10 µM.

In the case of `O=C1C(=O)N(Cc2ccc(Br)cc2)c2ccccc21` [VU0119498, reference compound], the “0.1 µM ACh: response with modulator present divided by response to ACh alone” value ([1]; CHO-hM1) was 1.28 ± 0.12, the “100 µM ACh: response with modulator present divided by response to ACh alone” value ([1]; CHO-hM1) was 1.03 ± 0.05 and the “No ACh: agonist effect of the allosteric ligand by itself, fraction of the maximal response that could be elicited by ACh” value ([1]; CHO-hM1) was 0.06 ± 0.01.

With `COc1c(Br)cc(CN2C(=O)C(=O)c3ccccc32)cc1Br` [Compound 8c, 1-(3,5-dibromo-4-methoxybenzyl)indoline-2,3-dione] the “modulation of ACh response (in words)” value [1, 5] was “dramatically enhanced ACh efficacy”, the Kb [4] was 3 µM and the pKd [4] was 5.53. For the same compound, the “Binding cooperativity, A-B, α” value [4, 6] was 0.98 ± 0.39, the “Operational Efficacy-B, τB” value [4, 6] was 0.33 ± 0.06 and the “concentration with significant effects on zebrafish behavior” value ([3]; AB zebrafish, compared with BQCA) was 1 µM. The pEC50 ([3]; read-out: EC50 for decreasing locomotor activity) was 6.00, the pEC50 ([3]; read-out: EC50 for decreasing repetitive behaviors (increasing angular velocity)) was 5.96 and the “MTC (maximum tolerated concentration)” value [2] was > 30 µM. The “signs of toxicity (in words)” value ([2]; zebrafish, concentrations up to 30 μM, the highest concentration tested) was “neither produced any signs of toxicity”.

`CCCCc1oc2ccccc2c1C(=O)c1ccc(O)cc1` [Compound 4, reference compound] was tested, and the “modulation of ACh response (in words)” value [1, 5] was “suppressed the maximal ACh response” and the “MTC (maximum tolerated concentration)” value [2] was 0.3 µM.

`CCCCc1oc2ccc(NS(C)(=O)=O)cc2c1C(=O)c1ccc(OCCCN(CCCC)CCCC)cc1` [Dronedarone, reference compound] was tested, and the “0.1 µM ACh: response with modulator present divided by response to ACh alone” value ([1]; CHO-hM1) was 0.25 ± 0.05, the “100 µM ACh: response with modulator present divided by response to ACh alone” value ([1]; CHO-hM1) was 0.75 ± 0.07 and the “No ACh: agonist effect of the allosteric ligand by itself, fraction of the maximal response that could be elicited by ACh” value ([1]; CHO-hM1) was 0.08 ± 0.01. For the same compound, the “Therap. Index” value [3] was 1 and the “MTC (maximum tolerated concentration)” value [2] was 10 µM.

`CCCCc1oc2ccccc2c1C(=O)c1cc(I)c(OCCN(CC)C(C)=O)c(I)c1` [Compound 5a, N-(2-(4-(2-butylbenzofuran-3-carbonyl)-2,6-diiodophenoxy)ethyl)-N-ethylacetamide] was tested, and the “intrinsic agonist activity (in words)” value [1] was “significant intrinsic agonist activity”, the “increase in mAChR activity compared to treatment with ACh alone” value ([1]; [3H]AA release, CHO-hM1, predominantly at higher doses of ACh (Table 2, not available)) was 70% and the “MTC (maximum tolerated concentration)” value [2] was 10 µM.

In the case of `CCCCc1oc2ccccc2c1C(=O)c1cc(I)c(OCCNCC)c(I)c1.Cl` [Compound 1, (2-butylbenzofuran-3-yl)(4-(2-(ethylamino)ethoxy)-3,5-diiodophenyl)methanone hydrochloride], the “modulation of ACh response (in words)” value [1, 5] was “suppressed the maximal ACh response”, the “Therap. Index” value [3] was 1 and the “MTC (maximum tolerated concentration)” value [2] was 3 µM.

`CCCCc1oc2ccccc2c1C(=O)c1ccc(OCCN(CC)CC)cc1` [Compound 6c, (2-butylbenzofuran-3-yl)(4-(2-(diethylamino)ethoxy)phenyl)methanone] was tested, and the “modulation of ACh response (in words)” value [1, 5] was “decreased ACh activity”, the “Therap. Index” value [3] was 30 and the “MTC (maximum tolerated concentration)” value [2] was 3 µM.
